From patent US20240148821A1, “PHARMACEUTICAL USE OF CYCLIC PEPTIDE COMPOUND” (CHUGAI SEIYAKU KABUSHIKI KAISHA, priority 2021, published 2024)
Bridge positions count the residues as written; N and C are the ends. Square brackets hold non-standard residues; d marks the D form. Peptide text beside a SMILES is read from it. * marks the point of attachment. hPhe(3,5-F2-4-CF3) = N[C@@H](CCc1cc(F)c(C(F)(F)F)c(F)c1)C(=O)O; hPhe(3-Cl-4-CF3) = N[C@@H](CCc1ccc(C(F)(F)F)c(Cl)c1)C(=O)O; hPhe(3-F,4-CF3) = N[C@@H](CCc1ccc(C(F)(F)F)c(F)c1)C(=O)O; NMePhe(4-CF3) = CN[C@@H](Cc1ccc(C(F)(F)F)cc1)C(=O)O; NMeAbu(4,4,4-F3) = CN[C@@H](CC(F)(F)F)C(=O)O; NMePhe(4-Me) = CN[C@@H](Cc1ccc(C)cc1)C(=O)O; NMeGly(cPent) = CN[C@H](C(=O)O)C1CCCC1; Pro(4,4-F2) = O=C(O)[C@@H]1CC(F)(F)CN1; NMeCha = CN[C@@H](CC1CCCCC1)C(=O)O; Hyp = O=C(O)[C@@H]1C[C@@H](O)CN1; NEtLeu = CCN[C@@H](CC(C)C)C(=O)O; NMeChg = CN[C@H](C(=O)O)C1CCCCC1; NMeI = CC[C@H](C)[C@H](NC)C(=O)O; X17 = FC1(F)CN(*)CC(F)(F)C1(F)F; NMeD = CN[C@@H](CC(=O)O)C(=O)O; NMeL = CN[C@@H](CC(C)C)C(=O)O; NMeNva = CCC[C@H](NC)C(=O)O; NMeV = CN[C@H](C(=O)O)C(C)C; Azetidin(1-yl) = C1CN(*)C1; Morpholide = C1CN(*)CCO1; NMeA = CN[C@@H](C)C(=O)O; Piperidide = C1CCN(*)CC1; Pyrrolidide = C1CCN(*)C1; Ac5c = NC1(C(=O)O)CCCC1; Aze = O=C(O)[C@@H]1CCN1; Ac4c = NC1(C(=O)O)CCC1; NEtG = CCNCC(=O)O; Sar = CNCC(=O)O

Key:
[1] = system: Human pancreatic cancer cell line AsPC-1 (G12D mutation Kras); assay: AsPC-1 cell growth inhibition (AsPC-1 CGI); type: cell-based; details: read-out: AsPC-1 cell growth inhibition, 50% growth inhibitory concentration (IC50 value); 96 hours, CellTiter-Glo, values classified in ranges
Method: Test compounds were serially dilated with dimethyl sulfoxide, and 200 nL was then dispensed to a U-bottom 96-well plate using Labcyte Echo. […] The cell suspension was dispensed to a. plate containing a test compound at 100 μL per well and incubated at 37° C. in a 5% carbon dioxide gas incubator. 96 hours later, 80 μL of CellTiter-Glo (Promega) was added to each well and fluorescence was measured.

[2] = target: protein-protein interaction between Kras and SOS1 (biotin-tagged human Kras loaded with GDP, His-tagged human SOS1) (Homo sapiens (Human), UniProt P01116, G12D); assay: Protein-protein interaction inhibition between Kras and SOS1 (KrasG12D-SOS PPI) using AlphaScreen; type: biochemical; details: AlphaScreen; biotin-tagged human Kras loaded with GDP, His-tagged human SOS1; read-out: KRAS G12D-SOS PPI IC50;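 further: kras produced in E. coli, Ni-coupled donor beads and streptavidin acceptor beads, excitation 680 nm with emission detected at 520–620 nm via singlet oxygen transfer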

Compound | IC50 [1] | IC50 [2]
CCC[C@H]1C(=O)N[C@@H]([C@@H](C)CC)C(=O)N(C)CC(=O)N(C)CC(=O)N(C)[C@@H](Cc2ccc(C)cc2)C(=O)N(C)CC(=O)N[C@@H](CCc2cc(F)c(C(F)(F)F)c(F)c2)C(=O)N2C[C@H](OCC)C[C@H]2C(=O)NC2(CCCC2)C(=O)N(C)[C@@H](C2CCCCC2)C(=O)N(C)[C@H](C(=O)N2CCCC2)CC(=O)N1C [Compound 1224] ([NMeNva]I[Sar][Sar][NMePhe(4-Me)][Sar][hPhe(3,5-F2-4-CF3)][Hyp](Et)[Ac5c][NMeChg][NMeD]-Pyrrolidide; lactam N-11) | ≤ 20 nM | 0.67 nM
CC[C@H](C)[C@@H]1NC(=O)[C@H](CC(C)C)N(C)C(=O)C[C@@H](C(=O)N2CC(F)(F)C(F)(F)C(F)(F)C2)N(C)C(=O)[C@H](C2CCCCC2)N(C)C(=O)C2(CCCC2)NC(=O)[C@@H]2CCCN2C(=O)[C@H](CCc2ccc(C(F)(F)F)c(Cl)c2)NC(=O)CN(C)C(=O)[C@H](CC2CCCCC2)N(C)C(=O)CN(C)C(=O)CN(C)C1=O [Compound 1229] ([NMeL]I[Sar][Sar][NMeCha][Sar][hPhe(3-Cl-4-CF3)]P[Ac5c][NMeChg][NMeD]-X17; lactam N-11) | > 500 nM | 46 nM
CCO[C@@H]1C[C@H]2C(=O)NC3(CCCC3)C(=O)N(C)[C@@H](C3CCCC3)C(=O)N(C)[C@H](C(=O)N(C)C)CC(=O)N(C)[C@@H](CC(C)C)C(=O)N[C@@H]([C@@H](C)CC)C(=O)N(C)[C@@H](C)C(=O)N3CC[C@H]3C(=O)N(C)[C@@H](CC3CCCCC3)C(=O)N(C)CC(=O)N[C@@H](CCc3ccc(C(F)(F)F)c(F)c3)C(=O)N2C1 [Compound 1231] ([NMeL]I[NMeA][Aze][NMeCha][Sar][hPhe(3-F,4-CF3)][Hyp](Et)[Ac5c][NMeGly(cPent)][NMeD]-NMe2; lactam N-11) | ≤ 20 nM | 0.59 nM
CC[C@H](C)[C@@H]1NC(=O)[C@H](CC(C)C)N(CC)C(=O)C[C@@H](C(=O)N2CCOCC2)N(C)C(=O)[C@H]([C@@H](C)CC)N(C)C(=O)C2(CCCC2)NC(=O)[C@@H]2CCCN2C(=O)[C@H](CCc2ccc(C(F)(F)F)c(Cl)c2)NC(=O)CN(C)C(=O)[C@H](Cc2ccc(C(F)(F)F)cc2)N(C)C(=O)[C@@H]2CCN2C(=O)[C@H](C)N(C)C1=O [Compound 1234] ([NEtLeu]I[NMeA][Aze][NMePhe(4-CF3)][Sar][hPhe(3-Cl-4-CF3)]P[Ac5c][NMeI][NMeD]-Morpholide; lactam N-11) | ≤ 20 nM | 4.5 nM
CCO[C@@H]1C[C@H]2C(=O)NC3(CCC3)C(=O)N(C)[C@@H](C3CCCCC3)C(=O)N(C)[C@H](C(=O)N3CCCC3)CC(=O)N(C)[C@@H](CC(C)C)C(=O)N[C@@H]([C@@H](C)CC)C(=O)N(C)CC(=O)N(C)CC(=O)N(C)[C@@H](CC3CCCCC3)C(=O)N(C)CC(=O)N[C@@H](CCc3ccc(C(F)(F)F)c(Cl)c3)C(=O)N2C1 [Compound 1241] ([NMeL]I[Sar][Sar][NMeCha][Sar][hPhe(3-Cl-4-CF3)][Hyp](Et)[Ac4c][NMeChg][NMeD]-Pyrrolidide; lactam N-11) | ≤ 20 nM | 0.5 nM
CC[C@H](C)[C@@H]1NC(=O)[C@H](CC(C)C)N(C)C(=O)C[C@@H](C(=O)N2CCCC2)N(C)C(=O)[C@H]([C@@H](C)CC)N(C)C(=O)C2(CCCC2)NC(=O)[C@@H]2CC(F)(F)CN2C(=O)[C@H](CCc2ccc(C(F)(F)F)c(Cl)c2)NC(=O)CN(C)C(=O)[C@H](Cc2ccc(C(F)(F)F)cc2)N(C)C(=O)[C@@H]2CCN2C(=O)[C@H](C)N(C)C1=O [Compound 1242] ([NMeL]I[NMeA][Aze][NMePhe(4-CF3)][Sar][hPhe(3-Cl-4-CF3)][Pro(4,4-F2)][Ac5c][NMeI][NMeD]-Pyrrolidide; lactam N-11) | ≤ 20 nM | 0.52 nM
CC[C@H](C)[C@@H]1NC(=O)[C@H](CC(C)C)N(C)C(=O)C[C@@H](C(=O)N2CCC2)N(C)C(=O)[C@H](C2CCCC2)N(C)C(=O)C2(CCCC2)NC(=O)[C@@H]2CC(F)(F)CN2C(=O)[C@H](CCc2cc(F)c(C(F)(F)F)c(F)c2)NC(=O)CN(C)C(=O)[C@H](CC2CCCCC2)N(C)C(=O)[C@@H]2CCN2C(=O)[C@H](C)N(C)C1=O [Compound 1248] ([NMeL]I[NMeA][Aze][NMeCha][Sar][hPhe(3,5-F2-4-CF3)][Pro(4,4-F2)][Ac5c][NMeGly(cPent)][NMeD]-{Azetidin(1-yl)}; lactam N-11) | ≤ 20 nM | 0.67 nM
CCO[C@@H]1C[C@H]2C(=O)NC3(CCCC3)C(=O)N(C)[C@@H](C3CCCC3)C(=O)N(C)[C@H](C(=O)N3CCOCC3)CC(=O)N(C)[C@@H](CC(C)C)C(=O)N[C@@H]([C@@H](C)CC)C(=O)N(C)[C@@H](C)C(=O)N3CC[C@H]3C(=O)N(C)[C@@H](CC3CCCCC3)C(=O)N(C)CC(=O)N[C@@H](CCc3cc(F)c(C(F)(F)F)c(F)c3)C(=O)N2C1 [Compound 1250] ([NMeL]I[NMeA][Aze][NMeCha][Sar][hPhe(3,5-F2-4-CF3)][Hyp](Et)[Ac5c][NMeGly(cPent)][NMeD]-Morpholide; lactam N-11) | ≤ 20 nM | 0.63 nM
CCO[C@@H]1C[C@H]2C(=O)NC3(CCCC3)C(=O)N(C)[C@@H](C3CCCC3)C(=O)N(C)[C@H](C(=O)N3CCOCC3)CC(=O)N(C)[C@@H](CC(C)C)C(=O)N[C@@H]([C@@H](C)CC)C(=O)N(C)[C@@H](C)C(=O)N3CC[C@H]3C(=O)N(C)[C@@H](CC3CCCCC3)C(=O)N(C)CC(=O)N[C@@H](CCc3ccc(C(F)(F)F)c(Cl)c3)C(=O)N2C1 [Compound 1259] ([NMeL]I[NMeA][Aze][NMeCha][Sar][hPhe(3-Cl-4-CF3)][Hyp](Et)[Ac5c][NMeGly(cPent)][NMeD]-Morpholide; lactam N-11) | ≤ 20 nM | 0.49 nM
CC[C@H](C)[C@@H]1NC(=O)[C@H](CC(C)C)N(C)C(=O)C[C@@H](C(=O)N(C)C)N(C)C(=O)[C@H](C2CCCC2)N(C)C(=O)C2(CCCC2)NC(=O)[C@@H]2CC(F)(F)CN2C(=O)[C@H](CCc2ccc(C(F)(F)F)c(F)c2)NC(=O)CN(C)C(=O)[C@H](CC2CCCCC2)N(C)C(=O)[C@@H]2CCN2C(=O)[C@H](C)N(C)C1=O [Compound 1264] ([NMeL]I[NMeA][Aze][NMeCha][Sar][hPhe(3-F,4-CF3)][Pro(4,4-F2)][Ac5c][NMeGly(cPent)][NMeD]-NMe2; lactam N-11) | ≤ 20 nM | 0.54 nM
CCC[C@H]1C(=O)N[C@@H]([C@@H](C)CC)C(=O)N(C)CC(=O)N(C)CC(=O)N(C)[C@@H](CC2CCCCC2)C(=O)N(C)CC(=O)N[C@@H](CCc2ccc(C(F)(F)F)c(Cl)c2)C(=O)N2C[C@H](OCC)C[C@H]2C(=O)NC2(CCCC2)C(=O)N(C)[C@@H](C2CCCCC2)C(=O)N(C)[C@H](C(=O)N2CCCC2)CC(=O)N1C [Compound 1267] ([NMeNva]I[Sar][Sar][NMeCha][Sar][hPhe(3-Cl-4-CF3)][Hyp](Et)[Ac5c][NMeChg][NMeD]-Pyrrolidide; lactam N-11) | ≤ 20 nM | 0.36 nM
CCO[C@@H]1C[C@H]2C(=O)NC3(CCCC3)C(=O)N(C)[C@@H](C3CCCCC3)C(=O)N(C)[C@H](C(=O)N3CCCC3)CC(=O)N(C)[C@@H](CC(F)(F)F)C(=O)N[C@@H]([C@@H](C)CC)C(=O)N(C)CC(=O)N(C)CC(=O)N(C)[C@@H](Cc3ccc(C(F)(F)F)cc3)C(=O)N(C)CC(=O)N[C@@H](CCc3cc(F)c(C(F)(F)F)c(F)c3)C(=O)N2C1 [Compound 1271] ([NMeAbu(4,4,4-F3)]I[Sar][Sar][NMePhe(4-CF3)][Sar][hPhe(3,5-F2-4-CF3)][Hyp](Et)[Ac5c][NMeChg][NMeD]-Pyrrolidide; lactam N-11) | ≤ 20 nM | 0.49 nM
CC[C@H](C)[C@@H]1NC(=O)[C@H](CC(C)C)N(C)C(=O)C[C@@H](C(=O)N2CCOCC2)N(C)C(=O)[C@H](C2CCCC2)N(C)C(=O)C2(CCCC2)NC(=O)[C@@H]2CCCN2C(=O)[C@H](CCc2ccc(C(F)(F)F)c(Cl)c2)NC(=O)CN(CC)C(=O)[C@H](CC2CCCCC2)N(C)C(=O)[C@@H]2CCN2C(=O)[C@H](C)N(C)C1=O [Compound 1272] ([NMeL]I[NMeA][Aze][NMeCha][NEtG][hPhe(3-Cl-4-CF3)]P[Ac5c][NMeGly(cPent)][NMeD]-Morpholide; lactam N-11) | ≤ 20 nM | 2 nM
CC[C@H](C)[C@@H]1NC(=O)[C@H](CC(C)C)N(C)C(=O)C[C@@H](C(=O)N2CCCCC2)N(C)C(=O)[C@H](C(C)C)N(C)C(=O)C2(CCCC2)NC(=O)[C@@H]2CCCN2C(=O)[C@H](CCc2ccc(C(F)(F)F)c(Cl)c2)NC(=O)CN(CC)C(=O)[C@H](CC2CCCCC2)N(C)C(=O)[C@@H]2CCN2C(=O)[C@H](C)N(C)C1=O [Compound 1276] ([NMeL]I[NMeA][Aze][NMeCha][NEtG][hPhe(3-Cl-4-CF3)]P[Ac5c][NMeV][NMeD]-Piperidide; lactam N-11) | > 500 nM | 17 nM
CC[C@H](C)[C@@H]1NC(=O)[C@H](CC(C)C)N(C)C(=O)C[C@@H](C(=O)N2CCC2)N(C)C(=O)[C@H](C2CCCC2)N(C)C(=O)C2(CCCC2)NC(=O)[C@@H]2CC(F)(F)CN2C(=O)[C@H](CCc2ccc(C(F)(F)F)c(Cl)c2)NC(=O)CN(C)C(=O)[C@H](CC2CCCCC2)N(C)C(=O)[C@@H]2CCN2C(=O)[C@H](C)N(C)C1=O [Compound 1283] ([NMeL]I[NMeA][Aze][NMeCha][Sar][hPhe(3-Cl-4-CF3)][Pro(4,4-F2)][Ac5c][NMeGly(cPent)][NMeD]-{Azetidin(1-yl)}; lactam N-11) | ≤ 20 nM | 0.63 nM
CCC[C@H]1C(=O)N[C@@H]([C@@H](C)CC)C(=O)N(C)CC(=O)N(C)CC(=O)N(C)[C@@H](Cc2ccc(C)cc2)C(=O)N(C)CC(=O)N[C@@H](CCc2ccc(C(F)(F)F)c(Cl)c2)C(=O)N2C[C@H](OCC)C[C@H]2C(=O)NC2(CCCC2)C(=O)N(C)[C@@H](C2CCCCC2)C(=O)N(C)[C@H](C(=O)N2CCCC2)CC(=O)N1C [Compound 1285] ([NMeNva]I[Sar][Sar][NMePhe(4-Me)][Sar][hPhe(3-Cl-4-CF3)][Hyp](Et)[Ac5c][NMeChg][NMeD]-Pyrrolidide; lactam N-11) | ≤ 20 nM | 0.53 nM
